Measurements taken from patent US20230085307A1, “PYRIDAZINONE COMPOUND AND HERBICIDE” (NISSAN CHEMICAL CORPORATION, priority 2019, published 2023).

How the values were obtained:
[1] = system: southern crabgrass; experiment: Test Example 5: herbicidal effect by foliage application, plastic box (Table 20, symbol F); format: in vivo, southern crabgrass (Digitaria ciliaris); conditions: foliage application, 320 g/ha, three weeks after application
Method in brief: (§1)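 Plants sown in sterilized diluvial soil and grown 14 days in a greenhouse at 25° C to 30° C, then sprayed on the foliage with the compound's emulsion diluted in water to a predetermined herbicide amount. Injury to weeds and crops scored three weeks after application on a visual rating scale.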

[2] = system: velvetleaf; experiment: Test Example 5: herbicidal effect by foliage application, plastic box (Table 20, symbol M); format: in vivo, velvetleaf (Abutilon theophrasti); conditions: foliage application, 320 g/ha, three weeks after application
Method in brief: as §1

[3] = system: redroot pigweed; experiment: Test Example 4: herbicidal effect by soil treatment (Table 19, symbol N); format: in vivo, redroot pigweed (Amaranthus retroflexus); conditions: amount of applied herbicide 320 g/ha
Method in brief: (§2)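 Seeds were sown in sterilized diluvial soil and covered with about 1.5 cm of soil. An emulsion formulation diluted with water to a predetermined herbicide amount was sprayed evenly onto the soil surface. Plants grew in a greenhouse at 25° C. to 30° C., and the effect was scored three weeks after application using criteria from an earlier test.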

[4] = system: redroot pigweed; experiment: Test Example 5: herbicidal effect by foliage application, plastic box (Table 20, symbol N); format: in vivo, redroot pigweed (Amaranthus retroflexus); conditions: foliage application, 320 g/ha, three weeks after application
Method in brief: as §1

[5] = system: late watergrass; experiment: Test Example 1: herbicidal activity, application before weed generation under submerged conditions (Table 16, symbol A); format: in vivo, late watergrass (Echinochloa oryzicola); conditions: amount of applied herbicide 320 g/ha
Method in brief: (§3)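 Emulsion formulation, water-diluted to set dose, was put onto the flooded surface (4 cm depth, alluvial soil) the same day weeds were sown and 2.5-leaf rice transplanted. After 3 weeks at 25-30 °C under glass, each species was rated 0 (≤5% kill) to 5 (≥90% kill).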

[6] = system: southern crabgrass; experiment: Test Example 4: herbicidal effect by soil treatment (Table 19, symbol F); format: in vivo, southern crabgrass (Digitaria ciliaris); conditions: amount of applied herbicide 320 g/ha
Method in brief: as §2

[7] = system: barnyard grass; experiment: Test Example 4: herbicidal effect by soil treatment (Table 19, symbol H); format: in vivo, barnyard grass (Echinochloa crus-galli); conditions: amount of applied herbicide 320 g/ha
Method in brief: as §2

[8] = system: late watergrass; experiment: Test Example 2: herbicidal activity, application during weed generation under submerged conditions (Table 17, symbol A); format: in vivo, late watergrass (Echinochloa oryzicola); conditions: AAH 320 g/ha; application during weed generation, submerged conditions
Method in brief: (§4)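 Alluvial soil in Wagner pots was flooded to 4 cm depth and sown with the three weeds together; pots were kept in a greenhouse at 25° C. to 30° C. At the one to two leaf stage, an emulsion formulation diluted in water to a set rate went onto the water surface; scored three weeks later.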

[9] = system: rice flat sedge; experiment: Test Example 3: herbicidal effect by foliage application, Wagner pot (Table 18, symbol E); format: in vivo, rice flat sedge (Cyperus iria); conditions: amount of applied herbicide 320 g/ha
Method in brief: (§5)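 Plants were sown in alluvial soil held under 0.1–0.5 cm standing water and grown 14 days in a greenhouse at 25–30 °C. An emulsifiable formulation, water-diluted to the set dose, was then sprayed onto the foliage, and effects were scored three weeks later using previously defined criteria.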

[10] = system: lambsquarters; experiment: Test Example 5: herbicidal effect by foliage application, plastic box (Table 20, symbol O); format: in vivo, lambsquarters (Chenopodium album); conditions: foliage application, 320 g/ha, three weeks after application
Method in brief: as §1

[11] = system: lambsquarters; experiment: Test Example 4: herbicidal effect by soil treatment (Table 19, symbol O); format: in vivo, lambsquarters (Chenopodium album); conditions: amount of applied herbicide 320 g/ha
Method in brief: as §2

[12] = system: green foxtail; experiment: Test Example 4: herbicidal effect by soil treatment (Table 19, symbol G); format: in vivo, green foxtail (Setaria viridis); conditions: amount of applied herbicide 320 g/ha
Method in brief: as §2

[13] = system: Japanese bulrush; experiment: Test Example 1: herbicidal activity, application before weed generation under submerged conditions (Table 16, symbol B); format: in vivo, Japanese bulrush (Schoenoplectus juncoides); conditions: amount of applied herbicide 320 g/ha
Method in brief: as §3

[14] = system: barnyard grass; experiment: Test Example 5: herbicidal effect by foliage application, plastic box (Table 20, symbol H); format: in vivo, barnyard grass (Echinochloa crus-galli); conditions: foliage application, 320 g/ha, three weeks after application
Method in brief: as §1

[15] = system: Chinese sprangletop; experiment: Test Example 3: herbicidal effect by foliage application, Wagner pot (Table 18, symbol D); format: in vivo, chinese sprangletop (Leptochloa chinensis); conditions: amount of applied herbicide 320 g/ha
Method in brief: as §5

[16] = system: barnyard grass; experiment: Test Example 3: herbicidal effect by foliage application, Wagner pot (Table 18, symbol H); format: in vivo, barnyard grass (Echinochloa crus-galli); conditions: amount of applied herbicide 320 g/ha
Method in brief: as §5

[17] = system: Japanese bulrush; experiment: Test Example 2: herbicidal activity, application during weed generation under submerged conditions (Table 17, symbol B); format: in vivo, Japanese bulrush (Schoenoplectus juncoides); conditions: AAH 320 g/ha; application during weed generation, submerged conditions
Method in brief: as §4

[18] = system: green foxtail; experiment: Test Example 5: herbicidal effect by foliage application, plastic box (Table 20, symbol G); format: in vivo, green foxtail (Setaria viridis); conditions: foliage application, 320 g/ha, three weeks after application
Method in brief: as §1

[19] = system: oval-leafed pondweed; experiment: Test Example 2: herbicidal activity, application during weed generation under submerged conditions (Table 17, symbol C); format: in vivo, oval-leafed pondweed (Monochoria vaginalis); conditions: AAH 320 g/ha; application during weed generation, submerged conditions
Method in brief: as §4

[20] = system: oval-leafed pondweed; experiment: Test Example 1: herbicidal activity, application before weed generation under submerged conditions (Table 16, symbol C); format: in vivo, oval-leafed pondweed (Monochoria vaginalis); conditions: amount of applied herbicide 320 g/ha
Method in brief: as §3

[21] = system: velvetleaf; experiment: Test Example 4: herbicidal effect by soil treatment (Table 19, symbol M); format: in vivo, velvetleaf (Abutilon theophrasti); conditions: amount of applied herbicide 320 g/ha
Method in brief: as §2

| SMILES | F: southern crabgrass, herbicidal effect grade [1] | M: velvetleaf, herbicidal effect grade [2] | herbicidal effect, N: redroot pigweed [3] | N: redroot pigweed, herbicidal effect grade [4] | Herbicidal effect, A: late watergrass [5] | herbicidal effect, F: southern crabgrass [6] | herbicidal effect, H: barnyard grass [7] | herbicidal effect rating, A: late watergrass [8] | herbicidal effect on E: rice flat sedge [9] | O: lambsquarters, herbicidal effect grade [10] | herbicidal effect, O: lambsquarters [11] | herbicidal effect, G: green foxtail [12] | Herbicidal effect, B: Japanese bulrush [13] | H: barnyard grass, herbicidal effect grade [14] | herbicidal effect on D: Chinese sprangletop [15] | herbicidal effect on H: barnyard grass [16] | herbicidal effect rating, B: Japanese bulrush [17] | G: green foxtail, herbicidal effect grade [18] | herbicidal effect rating, C: oval-leafed pondweed [19] | Herbicidal effect, C: oval-leafed pondweed [20] | also measured |
| --- | --- | --- | --- | --- | --- | --- | --- | --- | --- | --- | --- | --- | --- | --- | --- | --- | --- | --- | --- | --- | --- |
| CC(COc1ccc(-c2sc3ccc(F)cc3c2-c2c(O)c(C)nn(C)c2=O)cc1)=NO [2-453] | 5 (Herbicidal rate of 90% or more (almost completely withered)) | 5 (Herbicidal rate of 90% or more (almost completely withered)) | 5 (Herbicidal rate of 90% or more (almost completely withered)) | 5 (Herbicidal rate of 90% or more (almost completely withered)) | 3 (Herbicidal rate of 40% or more and less than 70%) | 5 (Herbicidal rate of 90% or more (almost completely withered)) | 5 (Herbicidal rate of 90% or more (almost completely withered)) | 3 (Herbicidal rate of 40% or more and less than 70%) | 2 (Herbicidal rate of 20% or more and less than 40%) | 5 (Herbicidal rate of 90% or more (almost completely withered)) | 5 (Herbicidal rate of 90% or more (almost completely withered)) | 5 (Herbicidal rate of 90% or more (almost completely withered)) | 3 (Herbicidal rate of 40% or more and less than 70%) | 5 (Herbicidal rate of 90% or more (almost completely withered)) | 3 (Herbicidal rate of 40% or more and less than 70%) | 5 (Herbicidal rate of 90% or more (almost completely withered)) | 4 (Herbicidal rate of 70% or more and less than 90%) | 5 (Herbicidal rate of 90% or more (almost completely withered)) | 4 (Herbicidal rate of 70% or more and less than 90%) | 3 (Herbicidal rate of 40% or more and less than 70%) | herbicidal effect, M: velvetleaf [21]: 5 (Herbicidal rate of 90% or more (almost completely withered)) |
| COCCS(=O)(=O)c1ccc(-c2sc3ccc(F)cc3c2-c2c(O)c(C)nn(C)c2=O)cc1 [2-455] | 4 (Herbicidal rate of 70% or more and less than 90%) | 4 (Herbicidal rate of 70% or more and less than 90%) | 4 (Herbicidal rate of 70% or more and less than 90%) | 5 (Herbicidal rate of 90% or more (almost completely withered)) | 3 (Herbicidal rate of 40% or more and less than 70%) | 4 (Herbicidal rate of 70% or more and less than 90%) | 0 (Herbicidal rate of 5% or less (almost no effect)) | 3 (Herbicidal rate of 40% or more and less than 70%) | 0 (Herbicidal rate of 5% or less (almost no effect)) | 3 (Herbicidal rate of 40% or more and less than 70%) | 3 (Herbicidal rate of 40% or more and less than 70%) | 4 (Herbicidal rate of 70% or more and less than 90%) | 0 (Herbicidal rate of 5% or less (almost no effect)) | 4 (Herbicidal rate of 70% or more and less than 90%) | 2 (Herbicidal rate of 20% or more and less than 40%) | 5 (Herbicidal rate of 90% or more (almost completely withered)) | 0 (Herbicidal rate of 5% or less (almost no effect)) | 3 (Herbicidal rate of 40% or more and less than 70%) | 0 (Herbicidal rate of 5% or less (almost no effect)) | 0 (Herbicidal rate of 5% or less (almost no effect)) | herbicidal effect, M: velvetleaf [21]: 1 (Herbicidal rate of 5% or more and less than 20%) |
